Results on one molecule are retold here after BindingDB's records for patent US8829190 (Leo Pharma, 2014).

In the assay the target is cAMP-specific 3',5'-cyclic phosphodiesterase 4D (Homo sapiens, UniProt Q08499). Kind of assay: Binding Assay. The protocol:
Human recombinant PDE4 (Gene bank accession no NM006203) was incubated for 1 hour with the test compound at concentrations up to 10 μM, with cAMP (1x10-5M), and with a low amount (0.021 MBq) of radioactively labelled cAMP. At the end of the incubation, the cleavage of the substrate was evaluated by the binding of the AMP product to SPA beads, which generate chemo luminescence when bound to the radioactive tracer. The AMP product inhibited the binding of the radioactive tracer to the beads, and the luminescent signal was competed.

cAMP-specific 3',5'-cyclic phosphodiesterase 4D, sequence (Q08499 whole entry): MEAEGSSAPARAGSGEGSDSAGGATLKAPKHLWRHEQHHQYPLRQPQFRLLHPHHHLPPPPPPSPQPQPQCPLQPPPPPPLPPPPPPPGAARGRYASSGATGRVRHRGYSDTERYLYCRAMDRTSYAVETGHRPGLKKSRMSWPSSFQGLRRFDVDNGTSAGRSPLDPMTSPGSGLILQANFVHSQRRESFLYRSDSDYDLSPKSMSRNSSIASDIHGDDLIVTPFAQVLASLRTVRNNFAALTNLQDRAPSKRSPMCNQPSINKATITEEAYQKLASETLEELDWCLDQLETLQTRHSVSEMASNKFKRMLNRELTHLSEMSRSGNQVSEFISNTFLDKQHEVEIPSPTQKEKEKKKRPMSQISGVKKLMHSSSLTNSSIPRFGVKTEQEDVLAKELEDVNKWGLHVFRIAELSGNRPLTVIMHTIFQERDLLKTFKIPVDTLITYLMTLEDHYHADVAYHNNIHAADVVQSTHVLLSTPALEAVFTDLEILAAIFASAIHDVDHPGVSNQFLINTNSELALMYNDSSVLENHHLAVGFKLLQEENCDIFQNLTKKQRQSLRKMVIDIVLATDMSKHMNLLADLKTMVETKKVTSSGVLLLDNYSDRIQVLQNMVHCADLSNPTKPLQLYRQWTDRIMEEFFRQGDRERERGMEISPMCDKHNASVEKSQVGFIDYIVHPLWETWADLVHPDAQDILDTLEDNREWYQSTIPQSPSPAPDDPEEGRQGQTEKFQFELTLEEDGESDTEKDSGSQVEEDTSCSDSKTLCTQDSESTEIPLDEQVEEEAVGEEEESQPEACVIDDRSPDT

`COc1ccc(C(=O)Cc2ccccc2Cl)n2nc(C3CC3)nc12` [US8829190, 127] registered an IC50 of 46 nM.

Broadly, the IC50 is the concentration that inhibits the measured activity by half.
